Source: patent US20060057669A1, “Inactive transcription factor tif-ia and uses thereof” (priority 2002, published 2006)

How the values were obtained:
TIF-IA = assay: In vitro transcription assay of TIF-IA purified from treated HEK293T cells, in nuclear extracts from rapamycin-treated cells; assay type: biochemical; details: 1 hr; okadaic acid 1 μM or calyculin A 50 nM with rapamycin 20 nM
Description: Nuclear extracts from rapamycin-treated cells were supplemented with 30 and 90 ng of TIF-IA that was immunopurified from HEK293T cells co-expressing FLAG-tagged TIF-IA and either GST/myc-tagged wild-type S6K1 (lanes 2-5) or S6K1E389ANAC (lanes 6-9).
B) Transcriptional activity of TIF-IA mutants in vitro. TIF-IA was purified from cells that were mock-treated (lanes 2, 3), or treated for 1 hr with either okadaic acid (1 μM), rapamycin (20 nM), calyculin A (50 nM), or both okadaic acid or calyculin A and rapamycin as indicated. 30 ng (even numbers) and 90 ng (odd numbers except 1) of TIF-IA were assayed for their capability to restore transcription of nuclear extracts from rapamycin-treated cells.
If S6K1 or S6K1-activated kinases were the only pathways that target TIF-IA and mediate mTOR-dependent regulation of Pol I transcription, then rapamycin should not inactivate TIF-IA if a rapamycin-resistant S6K1 mutant was co-expressed. This, however, was not the case.
Two mechanisms could be responsible for the decreased phosphorylation of S44 after rapamycin treatment, e.g., inhibition of the respective kinase or activation of a counteracting phosphatase. […] If PP2A dephosphorylates and thus inactivates TIF-IA, inhibition of PP2A should protect TIF-IA from inactivation by rapamycin. […]

Pol I = assay: Co-immunoprecipitation of Pol I with TIF-IA mutants from HEK293T cells; assay type: binding, human
Description: (§1) (B) A mutant that mimics phosphorylation of TIF-IA at S199 fails to interact with Pol I and TIF-IB. FLAG-tagged wild-type TIF-IA or the indicated point mutants were overexpressed in HEK293T cells and immunoprecipitated from cell lysates with anti-FLAG antibodies (M2 agarose). Co-precipitated Pol I and TIF-IB/SL1 were visualized on Western blots with anti-RPA116 and anti-TAFI110 antibodies.
(§2) Immunoprecipitations were carried out from human cells overexpressing FLAG-tagged TIF-IA. Cells were lysed in IP buffer, cleared by centrifugation at 10,000×g for 30 min, and the supernatants were incubated for 4 hr at 4° C. with anti-FLAG (M2) agarose (Sigma). To analyze the interaction of TIF-IA with TIF-IB/SL1, the immunoprecipitates were washed with IP buffer and TIF-IB/SL1 was visualized on immunoblots with α-TAFI110 antibodies. To monitor the interaction of TIF-IA with Pol I, the immunoprecipitates were washed with IP buffer containing 600 mM NaCl and Pol I was analyzed on Western blots using antibodies against the second largest subunit of Pol I (RPA116) or PAF67 (Seither et al., J. Biol. Chem. 382 (2001), 1163-1170).
(§3) Given the importance of mTOR-mediated alterations in the phosphorylation pattern on TIF-IA activity, one could predict that either phosphorylation of S199, dephosphorylation of S44 or both regulate the interaction of TIF-IA with the Pol I transcription apparatus. It was therefore examined whether the S→A or S→D point mutant(s) were capable of interacting with Pol I and/or TIF-IB/SL1. For this, TIF-IA was precipitated from cells overexpressing either FLAG-tagged wild-type TIF-IA or the respective S199 and S44 mutant(s), and co-precipitated Pol I and TIF-IB/SL1 were visualized on Western blots.

Pol I transcription [1] = assay: Pol I reporter plasmid pMrl930-BH co-transfection in NIH3T3 cells, Northern blot; assay type: cell-based; details: 0.25, 0.5 or 1 μg expression vector
Description: (C) Phosphorylation by RSK is necessary and sufficient for enhancing TIF-IA activity in vivo. NIH3T3 cells were co-transfected with 3 μg pMrl930-BH and lor 2.5 μg of pMT2-HA-CA-RSK2 (lanes 2, 3). Transcripts from the reporter plasmid were monitored on Northern blots. An ethidium bromide stain of cellular 18S and 28S rRNA is shown below.
(C) Transcriptional activity of TIF-IAS44A in vivo. NIH3T3 cells were cotransfected with 2.5 μg Pol I reporter plasmid (pMrl930-BH) and 0.25, 0.5 or 1 μg of pcDNA3.1-TIF-IA (lanes 2-4), TIF-IAS44A (lanes 5-7). Transcripts from the reporter plasmid were monitored on Northern blots. The amount of cellular 18S and 28S rRNA is shown below.
NIH3T3, HEK293T and CLL39 cells were cultured in Dulbecco's modified Eagles medium (DMEM) supplemented with 10% fetal calf serum. Cells were transfected with 5 μg of DNA per 10^6 cells using the calcium phosphate DNA coprecipitation method. Total RNA was isolated after 48 h and analyzed on Northern blots as described (Voit et al., EMBO J. 18 (1999), 1891-1899). Cellular pre-rRNA levels were monitored by hybridization to antisense RNA complementary to the first 155 nucleotides of unprocessed 45S pre-RNA. Transcripts from the rDNA reporter plasmid were monitored by hybridization to a riboprobe that is complementary to pUC sequences inserted between the rDNA promoter and terminator sequences of pMrl930-BH. […]

TIF-IB/SL1 = assay: Co-immunoprecipitation of TIF-IB/SL1 with TIF-IA mutants from HEK293T cells; assay type: binding, human
Description: as §1, §2, §3

Pol I transcription [2] = assay: In vitro transcription: TIF-IA mutants restoring rDNA transcription of nuclear extract from density-arrested FM3A cells; assay type: biochemical, murine; details: S199 and S44 mutants; 30 and 60 ng
Description: (A) Transcriptional activity of TIF-IA mutants in vitro. FLAG-tagged wild-type TIF-IA and the indicated single or double point mutants were overexpressed in HEK293T cells, immunopurified, and 20 and 40 ng were assayed for their capability to restore rDNA transcriptional activity of nuclear extract from density-arrested FM3A cells. The amount and purity of TIF-IA were estimated on silver-stained SDS-polyacrylamide gels and Western blots (data not shown).
(A) Transcriptional activity of TIF-IAS199A and TIF-IAS199D in vitro. FLAG-tagged wild-type TIF-IA and the indicated mutants were immunopurified from HEK293T cells, and 30 and 60 ng were assayed for their capability to restore transcriptional activity of nuclear extract from density-arrested FM3A cells. The amount and purity of TIF-IA were estimated on silver-stained SDS-polyacrylamide gels (data not shown).
(B) Transcriptional activity of TIF-IAS44A in vitro. FLAG-tagged wild-type TIF-IA and the indicated mutant were assayed for their transcriptional activity in vitro.
Nuclear extracts were prepared from exponentially growing (8×10^5 cells/ml), density-arrested or PD98059-treated (CN Bioscience, Bad Soden, Germany) 40 μM, 0.5 hr) or rapamycin-treated FM3A cells (ATCC, Manassas, USA). 25 μl assays contained 50 ng of template DNA (pMr600/EcoRI), 30 μg nuclear extract proteins and 12 mM Hepes-KOH, [pH8.0], 0.1 mM EDTA, 5 mM MgCl2, 80 mM KCl, 10 mM creatine phosphate, 12% (v/v) glycerol, 0.66 mM each of ATP, GTP and CTP, 0.01 mM UTP and 0.5 μCi [α-^32P]UTP (5000 Ci/mmol). After incubation for 60 min at 30° C., RNA was extracted and analyzed on non-denaturing 5% polyacrylamide gels
TIF-IA was immunopurified from untransfected NIH3T3 cells or from HEK293T cells overexpressing FLAG-tagged TIF-IA. 4×10^6 cells were lysed in 0.8 ml IP buffer (20 mM Tris-HCl [pH 7.4], 200 mM NaCl, 2 mM EDTA, 2 mM EGTA, 1% Triton X-100, 0.5 mM PMSF, 1 μg/ml aprotinin, 5 μg/ml leupeptin and 1 μg/ml pepstatin A), centrifuged at 10,000 g for 30 min, and the supernatants were incubated for 4 hr at 4° C. with either 10 μg anti-TIF-IA antibodies bound to 20 μl protein G-agarose or with anti-FLAG (M2) agarose (Sigma-Aldrich Corp., Missouri, USA). The immunocomplexes were successively washed with buffer AM (20 mM Tris-HCl [pH 8.0], 5 mM MgCl2, 0.1 mM EDTA, 20% glycerol) containing 400 and 100 mM KCl, respectively. The amount and purity of TIF-IA was estimated on silver-stained polyacrylamide gels and similar amounts of bead-bound TIF-IA were used in in vitro transcription assays. GST fusion proteins were expressed in E. coli BL21(DE3) and purified on Glutathione-Sepharose 4B according to the manufacturer's instructions.
To assess the functional relevance of S633 and S649 phosphorylation on transcriptional activity, the respective S→A and S→D single or double point mutants were purified from transfected cells and assayed for their capability to rescue transcription of extracts from density-arrested cells. […] Thus, phosphorylation of TIF-IA at S649 and S633 is required for transcriptional activity.
Phosphorylation of peptide a should inhibit TIF-IA activity, while phosphorylation of peptide b, e.g. S44, should augment TIF-IA activity.

Molecule | effect on inactivation of TIF-IA by rapamycin (TIF-IA) | interaction with Pol I (co-precipitated RPA116) (Pol I) | transcription of the Pol I reporter (Pol I transcription [1]) | interaction with TIF-IB/SL1 (co-precipitated TAFI110) (TIF-IB/SL1) | capability to rescue transcription of extracts from density-arrested cells (Pol I transcription [2])
COC[C@@H]([C@H](O)[C@H](O)C(=O)NCC[C@H](C)c1nc(/C=C/C[C@@H]2O[C@]3(C[C@@H](O)[C@@H]2C)O[C@H]([C@H](C[C@H](O)[C@H](C)[C@H](O)[C@H](C)/C=C(C)/C(C)=C/C=C/C(C)=C\C#N)OC)[C@H](OP(=O)(O)O)C3(C)C)co1)N(C)C [calyculin A] | prevented inactivation of TIF-IA by rapamycin |  |  |  | 
C=C1[C@@H](O)[C@@H]2O[C@]3(CC[C@H](/C=C/[C@@H](C)[C@@H]4CC(C)=C[C@@]5(O[C@H](C[C@@](C)(O)C(=O)O)CC[C@H]5O)O4)O3)CC[C@H]2O[C@@H]1[C@@H](O)C[C@H](C)[C@H]1O[C@@]2(CCCCO2)CC[C@H]1C [okadaic acid] | prevented inactivation of TIF-IA by rapamycin |  |  |  | 
TIF-IAS44A: TIF-IA mutant, S44 mutated to alanine |  | interacted with both Pol I and TIF-IB/SL1 | inactive | interacted with both Pol I and TIF-IB/SL1 | abolishment of transcriptional activity of TIF-IA
